# Assay results: PMC9220178, “Preclinical Characterization of Antioxidant Quinolyl Nitrone QN23 as a New Candidate for the Treatment of Ischemic Stroke” (Antioxidants, 2022)
# Test system: adult male Wistar rats, four-vessel occlusion (4VO) transient forebrain ischemia
# Assay: Long-term neuronal viability by S6 protein immunostaining, hippocampal CA1
# Assay type: in vivo, rat
# Details: 2.0 mg/kg i.v. at reperfusion onset; 11 weeks of reperfusion
# Method: Transient forebrain ischemia was induced in adult male Wistar rats (10–12 weeks, Charles River, L’Arbresle, France) by the standard four-vessel occlusion (4VO) model previously described. Briefly, animals were anesthetized by intraperitoneal injection of a combination of ketamine, diazepam, and atropine (62.5, 5.0, and 0.25 mg/kg, respectively); positioned in a stereotactic device; and both vertebral arteries were cauterized. The next day, anesthesia was induced with 4% isoflurane and maintained at 2–2.5% isoflurane for carotid artery dissection. After anesthesia withdrawal, the carotid arteries were occluded with an atraumatic vascular clamp to induce brain ischemia. During the entire surgical procedure, temperature was monitored at 2 min intervals and kept at 37 °C. After 15 min of ischemia, the carotid arteries were unclamped for brain reperfusion. The animals were studied after 5 days of reperfusion (R5d), or after 11 weeks of reperfusion (long-term studies), and then they were euthanized under deep anesthesia. Animals from the sham control group were handled in the same way, but without occlusion of the carotid arteries. Ischemic animals were treated with vehicle solution (ethanol/polyethylene glycol 400/saline, 1:300:200 v/v), or with nitrones QN23 or NXY-059 in vehicle solution, as a single injection through the tail vein at the onset of reperfusion. […]
structure (smiles),measurement,value
"COc1ccc2nc(Cl)c(/C=[N+](\[O-])C(C)(C)C)cc2c1 [QN23, (Z)-N-tert-Butyl-1-(2-chloro-6-methoxyquinolin-3-yl)methanimine Oxide]",S6-positive cells (viable neurons) in hippocampal CA1,preserved a large number of viable neurons
